Molecules are shown by their SMILES.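 Where inhibition never reached the appropriate level, the endpoint shown equals the highest concentration tested. Otherwise, values were interpolated linearly from a five-concentration, 48-hour dose response in 96-well plates. The concentration for 50% growth inhibition is given as GI50.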 Activity calls are given as the source filed them. No stated cut-off is given here; in the data, active = GI50 up to about 1.1 µM and inactive = higher.

Test systems include A498; A549; ACHN; BT-549; EKVX; MDA-N; NCI-H23; NCI-H460; OVCAR-3; SF-268; SK-MEL-28; SK-OV-3; SN12C; SNB-19; T47D; UACC-257; UACC-62; HOP-62; SR.
Holding throughout (experiment): inhibition of tumour cell growth, NCI panel, 48 h

Turning to `O=C1CC2OCC=C3CN4CCC56c7ccccc7N1C5C2C3CC46O` (configuration not stated), the GI50 with A498 was 48.1 µM (inactive); with A549, > 100 µM (inactive); with ACHN it was > 100 µM (inactive); in the test on BT-549, > 100 µM (inactive); in the test on EKVX, > 100 µM (inactive); with MDA-N it was > 100 µM (inactive). In addition, the GI50 in the test with NCI-H23, in the test on NCI-H460, in the test with OVCAR-3, in the test with SF-268, with SK-MEL-28 and in the test on SK-OV-3 was > 100 µM (inactive) each time. Besides, the GI50 in the test with SN12C, in the test on SNB-19, in the test with T47D, in the test with UACC-257 and with UACC-62 was > 100 µM (inactive) in each case.

For `CCOC(=O)c1ccc(Nc2nc3cc(C(F)(F)F)ccc3nc2-c2ccccc2)cc1`, the GI50 in the test with A549 is > 100 µM (inactive); with ACHN, 17.7 µM (inactive); with BT-549, > 100 µM (inactive); in the test with EKVX, 49.8 µM (inactive); in the test with HOP-62 it was 20.9 µM (inactive); with MDA-N, > 100 µM (inactive). For the same molecule, the GI50 with NCI-H23 is 40.3 µM (inactive); with NCI-H460, 45.7 µM (inactive); in the test with OVCAR-3 it was 53.6 µM (inactive); with SF-268, > 100 µM (inactive); with SK-MEL-28, > 100 µM (inactive); in the test with SN12C, 86.1 µM (inactive). Moreover, the GI50 in the test with SNB-19 is 29.2 µM (inactive); with SR, > 100 µM (inactive); in the test on T47D, 35.7 µM (inactive); with UACC-257, > 100 µM (inactive); in the test on UACC-62, 11.1 µM (inactive).

`O=c1c(NCc2ccccc2)c(C2(c3ccccc3F)SCCCS2)c1=O`: the GI50 in the test on A498 is 82.8 µM (inactive); with A549, > 100 µM (inactive); with ACHN, > 100 µM (inactive); with BT-549, > 100 µM (inactive); in the test with EKVX, > 100 µM (inactive); with HOP-62, > 100 µM (inactive). The GI50 with MDA-N was 41.9 µM (inactive); in the test with NCI-H23, > 100 µM (inactive); in the test on NCI-H460, > 100 µM (inactive); with OVCAR-3 it was > 100 µM (inactive); with SF-268 it was > 100 µM (inactive); in the test on SK-MEL-28, > 100 µM (inactive). The GI50 with SK-OV-3 was > 100 µM (inactive); in the test on SN12C it was > 100 µM (inactive); in the test with SNB-19, > 100 µM (inactive); in the test with T47D it was > 100 µM (inactive); in the test with UACC-257 it was > 100 µM (inactive); in the test on UACC-62 it was 79.1 µM (inactive).

`CCOC(=O)CCC(NC(=O)c1ccc(NCc2ccc3nc(-c4ccccc4)c(Cl)nc3c2)c2ccccc12)C(=O)OCC` (configuration not stated): the GI50 in the test with A498, with A549, in the test with ACHN, in the test on BT-549, with EKVX and with HOP-62 was > 100 µM (inactive) in each case. In addition, the GI50 with MDA-N is > 100 µM (inactive); in the test on NCI-H23, 58.1 µM (inactive); in the test with NCI-H460, > 100 µM (inactive); with OVCAR-3, > 100 µM (inactive); in the test on SF-268, > 100 µM (inactive); in the test on SK-MEL-28, > 100 µM (inactive). Also, the GI50 was > 100 µM (inactive) in the test with SK-OV-3; > 100 µM (inactive) in the test on SN12C; > 100 µM (inactive) in the test with SNB-19; 13.9 µM (inactive) in the test on T47D; 16.2 µM (inactive) with UACC-257; > 100 µM (inactive) in the test with UACC-62.

On to `N#Cc1ccc(-c2nc3cc(Cl)ccc3[nH]2)cc1`, for which the GI50 in the test on A549 is 38.3 µM (inactive); in the test on BT-549 it was 68.2 µM (inactive); in the test on EKVX, 23.1 µM (inactive); in the test on HOP-62, > 100 µM (inactive); in the test on MDA-N it was 49.1 µM (inactive); with OVCAR-3 it was 54.7 µM (inactive). Moreover, the GI50 was > 100 µM (inactive) in the test on SK-OV-3; 51.1 µM (inactive) in the test on SN12C; > 100 µM (inactive) in the test on SNB-19; 80 µM (inactive) in the test on SR; 35.6 µM (inactive) with T47D.

As to `COc1cc2cc(C(=O)N3CC(CCl)c4c3cc(N)c3ccccc43)[nH]c2cc1OCCN(C)C` (configuration not stated), the GI50 with A498 is 0.00546 µM (active); in the test on A549 it was < 0.005 µM (active); in the test with ACHN it was < 0.005 µM (active); with BT-549, 0.051 µM (active); in the test on EKVX, 0.00809 µM (active); in the test on HOP-62, < 0.005 µM (active). Besides, the GI50 was < 0.005 µM (active) in the test with MDA-N; < 0.005 µM (active) in the test with NCI-H23; < 0.005 µM (active) in the test with NCI-H460; 0.00734 µM (active) with OVCAR-3; < 0.005 µM (active) in the test with SF-268; 0.00705 µM (active) with SK-MEL-28. Also, the GI50 was 0.0105 µM (active) with SK-OV-3; 0.00597 µM (active) with SN12C; 0.00644 µM (active) with SNB-19; < 0.005 µM (active) in the test with T47D; 0.00993 µM (active) in the test with UACC-257; < 0.005 µM (active) with UACC-62.

With `NCC(Cc1ccccc1)P(=O)(O)O` (configuration not stated), the GI50 in the test with A498, in the test with A549, in the test on ACHN, with BT-549, with EKVX and with HOP-62 was > 100 µM (inactive) throughout. Besides, the GI50 with MDA-N, with NCI-H23, with NCI-H460, in the test with OVCAR-3, in the test on SF-268 and in the test with SK-MEL-28 was > 100 µM (inactive) in each case. Further, the GI50 in the test with SK-OV-3, in the test on SN12C, in the test with SNB-19, with T47D, in the test on UACC-257 and in the test on UACC-62 was > 100 µM (inactive) in each case.

As to `CCOc1cc(-c2nc3cc(F)ccc3s2)ccc1O`, the GI50 in the test with A498 was 12.6 µM (inactive); in the test on A549 it was 17.9 µM (inactive); in the test with ACHN, 16 µM (inactive); in the test with BT-549 it was 16.1 µM (inactive); with EKVX it was 10.8 µM (inactive); in the test with MDA-N it was 15.8 µM (inactive). Besides, the GI50 was 18 µM (inactive) in the test with NCI-H23; 17.3 µM (inactive) in the test with NCI-H460; 18.5 µM (inactive) with OVCAR-3; 15.7 µM (inactive) in the test on SF-268; 27.6 µM (inactive) in the test on SK-MEL-28; 18.7 µM (inactive) in the test with SK-OV-3. Moreover, the GI50 with SN12C was 19.1 µM (inactive); with SNB-19, 16.5 µM (inactive); in the test with T47D, 11.6 µM (inactive); with UACC-257 it was 16.8 µM (inactive); in the test on UACC-62, 16.6 µM (inactive).

Consider `[O-][S+](Nc1ccccc1)c1ccc(Cl)c(Cl)c1` (configuration not stated), for which the GI50 in the test with A549 was 28.6 µM (inactive); in the test with ACHN, 62.5 µM (inactive); in the test on BT-549, 17 µM (inactive); with EKVX it was 47.3 µM (inactive); in the test on HOP-62 it was 26.1 µM (inactive); in the test with MDA-N, > 100 µM (inactive). The GI50 was 54.5 µM (inactive) in the test with NCI-H23; 31.3 µM (inactive) with NCI-H460; 63.2 µM (inactive) in the test with OVCAR-3; 26.4 µM (inactive) in the test with SF-268; > 100 µM (inactive) with SK-MEL-28; > 100 µM (inactive) with SN12C. Moreover, the GI50 with SNB-19 was 62.8 µM (inactive); with SR, 26.4 µM (inactive); in the test on T47D, 10.3 µM (inactive); with UACC-257, 62.2 µM (inactive); in the test on UACC-62, 25.8 µM (inactive).

Regarding `Nc1ncnc2c1ccn2CC=C(CO)CO`, the GI50 with A498, in the test with A549, in the test on ACHN, with BT-549, with EKVX and with HOP-62 was > 100 µM (inactive) each time. In addition, the GI50 with MDA-N, in the test on NCI-H23, in the test on NCI-H460, with OVCAR-3, with SF-268 and in the test on SK-MEL-28 was > 100 µM (inactive) throughout. For the same molecule, the GI50 in the test on SK-OV-3, in the test with SN12C, in the test with SNB-19, with T47D, with UACC-257 and in the test on UACC-62 was > 100 µM (inactive) throughout.

As to `COc1ccc(N2C(=O)C(=O)C3(CCCCC3)C2=O)c(OC)c1OC`, the GI50 was > 100 µM (inactive) with A549; > 100 µM (inactive) in the test on ACHN; 34 µM (inactive) with BT-549; > 100 µM (inactive) in the test on EKVX; > 100 µM (inactive) with MDA-N; > 100 µM (inactive) in the test with NCI-H23. Moreover, the GI50 with OVCAR-3, in the test with SF-268, in the test on SK-MEL-28, with SK-OV-3, with SN12C and with SNB-19 was > 100 µM (inactive) throughout. Also, the GI50 with SR, in the test on T47D, in the test with UACC-257 and in the test on UACC-62 was > 100 µM (inactive) throughout.

As to `COc1c2ccoc2nc2c(OC)c(OCC(O)C(C)(C)O)ccc12` (configuration not stated) [EVOXINE], the GI50 in the test on A498, with A549, in the test on ACHN, with BT-549, in the test with EKVX and with MDA-N was > 100 µM (inactive) throughout. Further, the GI50 in the test on NCI-H23, in the test on NCI-H460, in the test with OVCAR-3, in the test with SF-268, in the test on SK-MEL-28 and in the test on SK-OV-3 was > 100 µM (inactive) each time. The GI50 in the test on SN12C, in the test on SNB-19, in the test with T47D, in the test on UACC-257 and with UACC-62 was > 100 µM (inactive) throughout.

These data come from ChEMBL document CHEMBL1201862, “PubChem BioAssay data set” (2004).
